Experimental findings from patent US11840686B2, “Modulation of prekallikrein (PKK) expression” (Ionis Pharmaceuticals, Inc., priority 2013, dated 2023) are described below.

Strand notation (5' to 3'): a small letter for the sugar, then the base; units joined by * are phosphorothioate-linked, units joined directly phosphodiester-linked; [ ] holds rarer units or linkages, { } end groups; capitals alone tell only the bases. e = 2'-O-(2-methoxyethyl) (MOE); [5mC] = 5-methylcytosine; d = 2'-deoxy (DNA)

By % inhibition is commonly meant the change of the read-out against control, counted positive when it falls.

The first series relates to human PKK mRNA. As to the kind of experiment: Antisense inhibition of human PKK mRNA in HepaRG cells, 3,000 nM (Example 1). Type of series: cell-based. As to conditions: Table 2; PKK mRNA, HepaRG cells, 3,000 nM, electroporation, ~24 h, relative to untreated control cells. The method in brief: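 Values give percent PKK mRNA reduction relative to untreated controls, normalised to RIBOGREEN total RNA. mRNA was quantified by real-time PCR (RTS3454) about 24 h after electroporation. Each 20-mer MOE gapmer was delivered at 3,000 nM into 20,000 HepaRG cells per well.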
As for “531073 (e[5mC]*e[5mC]*e[5mC]*eA*eG*dG*d[5mC]*dT*d[5mC]*dA*dG*dA*dA*dT*dT*eT*eG*eA*e[5mC]*eT; antisense) [compound 531073]”, the “% inhibition” value is on record as 51%.

As for “531074 (e[5mC]*eT*eT*eT*eG*d[5mC]*dA*dG*dA*dT*dG*dA*dG*dG*dA*e[5mC]*e[5mC]*e[5mC]*e[5mC]*e[5mC]; antisense) [compound 531074]”, the “% inhibition” value was 67%.

Consider “531075 (e[5mC]*e[5mC]*eA*eT*eG*d[5mC]*dT*dT*dT*dG*d[5mC]*dA*dG*dA*dT*eG*eA*eG*eG*eA; antisense) [compound 531075]”, for which the “% inhibition” value is reported as 64%.

As for “531076 (eA*e[5mC]*eT*e[5mC]*eT*d[5mC]*d[5mC]*dA*dT*dG*d[5mC]*dT*dT*dT*dG*e[5mC]*eA*eG*eA*eT; antisense) [compound 531076]”, the “% inhibition” value was 68%.

On to “531077 (eA*eT*eG*e[5mC]*e[5mC]*dA*d[5mC]*dT*d[5mC]*dT*d[5mC]*d[5mC]*dA*dT*dG*e[5mC]*eT*eT*eT*eG; antisense) [compound 531077]”, for which the “% inhibition” value worked out at 51%.

For the substance “531079 (eT*e[5mC]*e[5mC]*eT*e[5mC]*dA*dG*d[5mC]*dA*dG*d[5mC]*dT*d[5mC]*dT*dG*eA*eG*eT*eG*e[5mC]; antisense) [compound 531079]”, the “% inhibition” value stood at 58%.

Take “531080 (e[5mC]*eA*eT*eT*eG*dT*d[5mC]*d[5mC]*dT*d[5mC]*dA*dG*d[5mC]*dA*dG*e[5mC]*eT*e[5mC]*eT*eG; antisense) [compound 531080]”: the “% inhibition” value is listed as 55%.

Take “531081 (eT*eG*eG*eT*eT*dT*dT*dT*dG*dG*dA*dA*dT*dT*d[5mC]*eT*eG*eA*eA*eA; antisense) [compound 531081]”: the “% inhibition” value is listed as 14%.

In the case of “531082 (eA*eT*eA*eT*eT*dG*dG*dT*dT*dT*dT*dT*dG*dG*dA*eA*eT*eT*e[5mC]*eT; antisense) [compound 531082]”, the “% inhibition” value was determined as 31%.

Still in this series, the particulars now being: Table 3; HepaRG cells, electroporation with 3,000 nM antisense oligonucleotide, approx. 24 hours; PKK mRNA by RT-PCR (RTS3454), relative to untreated control cells.
Consider “531084 (eA*eT*eA*eG*eG*dG*dA*d[5mC]*dA*d[5mC]*dA*dA*d[5mC]*d[5mC]*dA*eA*eG*eG*eA*eA; antisense) [compound 531084]”, for which the “% inhibition” value turned out to be 25%.

As to “531085 (eA*eG*eG*e[5mC]*eA*d[5mC]*dA*dG*dA*dG*d[5mC]*d[5mC]*dA*dG*d[5mC]*eA*e[5mC]*e[5mC]*e[5mC]*eA; antisense) [compound 531085]”, the “% inhibition” value is reported as 9%.

For the substance “531086 (e[5mC]*e[5mC]*eT*eG*e[5mC]*d[5mC]*dT*d[5mC]*d[5mC]*dT*dG*dG*d[5mC]*dA*dG*e[5mC]*e[5mC]*eT*eT*e[5mC]; antisense) [compound 531086]”, the “% inhibition” value turned out to be 48%.

“531087 (e[5mC]*e[5mC]*eA*eG*eG*dT*dG*dT*dG*dG*dA*d[5mC]*dA*dG*d[5mC]*eA*eG*e[5mC]*eT*eG; antisense) [compound 531087]”: the “% inhibition” value turned out to be 52%.

As for “531088 (eG*eG*eT*eT*eT*dT*dG*dT*dT*dT*dG*dT*dA*dA*dA*eA*eT*eT*eA*eG; antisense) [compound 531088]”, the “% inhibition” value is on record as 27%.

Consider “531089 (eA*eA*eA*eA*e[5mC]*dA*d[5mC]*d[5mC]*dA*dT*dT*dA*dA*dA*dT*e[5mC]*e[5mC]*eA*eT*eT; antisense) [compound 531089]”, for which the “% inhibition” value was 45%.

For “531090 (eA*e[5mC]*eA*eG*eA*dA*dA*d[5mC]*d[5mC]*dA*dT*dG*dA*dT*dG*eT*eT*eG*e[5mC]*eT; antisense) [compound 531090]”, the “% inhibition” value is listed as 59%.

On to “531091 (eT*e[5mC]*eA*eG*e[5mC]*d[5mC]*d[5mC]*dA*dA*dT*dG*dT*d[5mC]*d[5mC]*dT*eA*eA*e[5mC]*e[5mC]*eT; antisense) [compound 531091]”, for which the “% inhibition” value was found to be 35%.

With “531092 (e[5mC]*e[5mC]*eT*eT*e[5mC]*dA*d[5mC]*dT*dG*dA*d[5mC]*dT*d[5mC]*dT*d[5mC]*eT*eT*eT*eT*e[5mC]; antisense) [compound 531092]”, the “% inhibition” value is reported as 24%.

Regarding “531093 (eT*eT*e[5mC]*eT*e[5mC]*d[5mC]*dT*dG*dG*d[5mC]*dT*d[5mC]*dA*dG*dA*eA*eG*e[5mC]*eT*e[5mC]; antisense) [compound 531093]”, the “% inhibition” value was determined as 60%.

Turning to “531094 (eG*eA*eA*eT*eG*dT*d[5mC]*dA*dG*dG*d[5mC]*d[5mC]*dT*d[5mC]*dT*eG*eG*eG*e[5mC]*e[5mC]; antisense) [compound 531094]”, the “% inhibition” value was 48%.

In the case of “531095 (e[5mC]*eT*eA*eA*e[5mC]*dA*dA*d[5mC]*d[5mC]*d[5mC]*d[5mC]*dA*d[5mC]*dA*dA*eT*eA*eT*e[5mC]*eA; antisense) [compound 531095]”, the “% inhibition” value was 20%.

In the case of “531096 (e[5mC]*e[5mC]*e[5mC]*eA*eA*dT*dT*d[5mC]*dT*dT*dA*dG*dT*d[5mC]*d[5mC]*eT*eT*eT*eA*eA; antisense) [compound 531096]”, the “% inhibition” value was found to be 45%.

“531097 (eA*e[5mC]*e[5mC]*eA*eA*dG*d[5mC]*dT*d[5mC]*dA*dG*d[5mC]*d[5mC]*dT*d[5mC]*e[5mC]*eA*eA*e[5mC]*eT; antisense) [compound 531097]”: the “% inhibition” value is on record as 41%.

In the case of “531098 (eT*eT*eA*eT*eT*dA*dG*dT*d[5mC]*dA*dA*dA*dT*d[5mC]*dA*e[5mC]*e[5mC]*e[5mC]*eA*eA; antisense) [compound 531098]”, the “% inhibition” value turned out to be 19%.

On to “531099 (eT*eG*eG*eA*eT*dG*dG*dG*dT*dA*dG*dA*dG*dG*d[5mC]*e[5mC]*eT*eT*eT*e[5mC]; antisense) [compound 531099]”, for which the “% inhibition” value is on record as 64%.

Turning to “531100 (e[5mC]*e[5mC]*e[5mC]*e[5mC]*e[5mC]*dT*d[5mC]*d[5mC]*d[5mC]*dT*dT*d[5mC]*d[5mC]*d[5mC]*dT*eA*e[5mC]*eA*e[5mC]*eA; antisense) [compound 531100]”, the “% inhibition” value stood at 0%.

As for “531101 (eA*eT*eG*eT*eA*dA*dG*dT*dT*dA*d[5mC]*dA*dA*dG*d[5mC]*e[5mC]*eA*e[5mC]*eT*eA; antisense) [compound 531101]”, the “% inhibition” value worked out at 37%.

Take “531102 (eT*eG*e[5mC]*e[5mC]*eT*d[5mC]*dT*dT*dT*dA*dA*dT*dA*dA*dA*eA*eA*e[5mC]*eT*e[5mC]; antisense) [compound 531102]”: the “% inhibition” value is given as 42%.

“531103 (eA*e[5mC]*eT*e[5mC]*eA*dT*dT*dG*d[5mC]*d[5mC]*dT*dT*dA*dA*d[5mC]*eT*e[5mC]*eA*eG*eG; antisense) [compound 531103]”: the “% inhibition” value is recorded as 40%.

Regarding “531104 (eA*e[5mC]*eT*eT*eG*dA*d[5mC]*d[5mC]*dT*dT*dA*d[5mC]*dT*dG*dT*eT*eT*eT*eA*eG; antisense) [compound 531104]”, the “% inhibition” value was 20%.

In the case of “531105 (e[5mC]*eT*e[5mC]*e[5mC]*eT*d[5mC]*d[5mC]*d[5mC]*d[5mC]*dA*dG*dG*d[5mC]*dT*dG*e[5mC]*eT*e[5mC]*e[5mC]*eT; antisense) [compound 531105]”, the “% inhibition” value was found to be 16%.

For the substance “531106 (antisense eA*eA*eG*eA*eT*d[5mC]*dT*dA*dG*dA*dT*dA*dA*dT*dT*e[5mC]*eT*eT*eG*eT) [compound 531106]”, the “% inhibition” value is reported as 31%.

As to “531107 (antisense eT*e[5mC]*eA*eA*e[5mC]*dT*d[5mC]*dA*d[5mC]*dA*d[5mC]*d[5mC]*dT*dG*dA*e[5mC]*e[5mC]*eT*eA*eA) [compound 531107]”, the “% inhibition” value is given as 30%.

Turning to “531108 (antisense eT*eG*eA*eA*e[5mC]*d[5mC]*d[5mC]*dA*dA*dA*dA*d[5mC]*dT*d[5mC]*dT*eG*eG*e[5mC]*eA*e[5mC]) [compound 531108]”, the “% inhibition” value stood at 50%.

As to “531109 (antisense eA*eG*e[5mC]*e[5mC]*e[5mC]*dA*dA*dG*dG*dA*dA*d[5mC]*dA*dT*d[5mC]*eT*e[5mC]*eA*e[5mC]*e[5mC]) [compound 531109]”, the “% inhibition” value turned out to be 52%.

As to “531111 (antisense e[5mC]*eT*eT*e[5mC]*eT*d[5mC]*d[5mC]*dT*dG*dG*d[5mC]*dT*d[5mC]*dA*dG*eA*eA*eG*e[5mC]*eT) [compound 531111]”, the “% inhibition” value was determined as 68%.

“531112 (antisense eA*eT*eG*eT*eA*dT*dG*dA*dT*dT*d[5mC]*dT*dA*dA*dG*eA*eA*e[5mC]*eT*eT) [compound 531112]”: the “% inhibition” value is recorded as 14%.

As for “531113 (antisense eA*eA*e[5mC]*eA*eG*dA*d[5mC]*dA*d[5mC]*dA*dT*dT*dA*dT*dT*eT*eA*eT*eA*eT) [compound 531113]”, the “% inhibition” value is 0%.

With “531114 (antisense eA*eG*eA*eG*eT*d[5mC]*dA*dA*dG*dT*d[5mC]*d[5mC]*dA*d[5mC]*dA*eG*eA*e[5mC]*eA*eT) [compound 531114]”, the “% inhibition” value stood at 40%.

“531115 (antisense eT*e[5mC]*e[5mC]*eT*eA*dA*dA*dT*dA*dG*dG*dA*dA*d[5mC]*dA*eA*eA*eG*eT*eA) [compound 531115]”: the “% inhibition” value is given as 0%.

Turning to “531116 (antisense eT*eT*eG*eT*eT*dA*dA*dG*dG*dT*dT*dG*dT*dA*dG*eA*eG*eA*eG*eA) [compound 531116]”, the “% inhibition” value was found to be 23%.

Turning to “531117 (antisense eA*e[5mC]*e[5mC]*e[5mC]*eA*dA*dT*dT*dA*dT*dT*dT*dT*dT*dA*eA*eT*eG*eG*e[5mC]) [compound 531117]”, the “% inhibition” value was 62%.

In the case of “531118 (antisense eG*e[5mC]*e[5mC]*eT*eA*dA*dA*dT*dG*dT*dA*dA*dG*dA*dG*e[5mC]*eT*eA*eA*eA) [compound 531118]”, the “% inhibition” value is on record as 26%.

For the substance “531119 (antisense eT*eA*eA*eA*e[5mC]*dT*d[5mC]*dT*dT*dA*d[5mC]*dA*dT*dT*dT*eA*eT*eA*eG*eA) [compound 531119]”, the “% inhibition” value is listed as 0%.
